# Data from article PMC5034043 (The Journal of Biological Chemistry, 2016).
# Where two headings read alike, the source gives them in different places.
# Tested on: T1, synaptosomal proteome
# T1 construct: from tissue; host or cells: brain synaptosomes of male C57/B6 mice
# Type: binding, mouse
# Procedure: Synaptosomes were resuspended to 1 mg of protein/ml in HEPES buffer medium (in mM: 140 NaCl, 5 KCl, 5 NaHCO3, 1.2 NaH2PO4, 1 MgCl2, 10 glucose, and 10 HEPES (pH 7.4)). […] The samples were allowed to equilibrate for 5 min before being transferred to a parafilm-sealed 1-mm path length quartz cuvette. The sample was then irradiated for 20 min at a peak bandwidth of 350 nm (Rayonet RPR-3500 lamp) ∼6 cm from the light source. Non-irradiated samples were left in the dark at ambient temperature (22–25 °C) for 20 min. All remaining procedures were conducted with restricted light exposure.
# To 750 μg of photolabeled or control synaptosome samples, 40 μl of 10% SDS and 2 μl of 5 mM DTT in water were added. Samples were then vortexed, heated for 10 min at 65 °C, and then briefly cooled. Final concentrations of 150 μM azide-biotin (Click Chemistry Tools), 2 mM tris(3-hydroxypropyltriazolylmethyl)amine (Sigma), 1 mM ascorbic acid (Sigma), and 1 mM CuSO4·5H2O (Sigma) were added to each sample and vortexed vigorously. The samples were left in the dark at ambient temperature (22–25 °C) for 1 h with mild agitation. Directly to each sample 4× volume chilled methanol, 1.5× chilled chloroform, and 3× chilled double distilled H2O were added. Samples were vortexed vigorously and centrifuged at 1,400 × g for 30 min at 4 °C. Both liquid layers were carefully removed, and the protein pellet was washed with 2 ml of 1:1 (v/v) chilled methanol/chloroform. Samples were centrifuged at 3,500 × g for 30 min at 4 °C. Protein pellets were briefly air-dried before further processing.
# 750 μg of biotin-conjugated protein sample was resuspended in 500 μl of 25 mM NH4HCO3 and 6 M urea in water. Next, 150 μl of 5% Triton X-100 in water, 50 μl of 10% SDS in water, and 1.5 μl of 0.5 M DTT were added. The samples were heated for 15 min at 65 °C. After briefly cooling, 14 μl of 0.5 M iodoacetamide in water was added, and the sample was left in the dark for 45 min. […] The supernatant was diluted to 4 ml with PBS, and 2 ml of PBS containing 100 μl of 50% streptavidin-agarose resin (Thermo Scientific) was added. Biotinylated proteins within the sample were captured over resin overnight at 4 °C with mild agitation. The resin was first washed with 6 ml of 1% SDS in PBS, and then 7 ml of 0.1 M urea in PBS followed by 10 ml of PBS. The resin underwent a final wash with 0.9 ml of 50 mM Tris-HCl and 1 mM CaCl2 in water (pH 8.0) and then resuspended in 200 μl of 50 mM Tris-HCl, 1 mM CaCl2 in water (pH 8.0), and 2 μg of porcine sequencing grade trypsin (Promega). Samples were digested overnight at 37 °C. Samples were then centrifuged at 2,000 × g for 4 min, and digest supernatant was decanted. Beads were washed in 100 μl of PBS centrifuged at 5,200 × g for 5 min, and the wash was combined with the digest supernatant. To the combined sample, trifluoroacetic acid (TFA) was added to 0.4% (v/v) or until pH <2. The sample was desalted with Oasis C18 10-mg columns (Waters) as described previously ([66]). The eluted sample was dried by speed vac and resuspended in 0.1 M HEPES buffer (pH 8.5). […] Appropriate corresponding TMTsixplex^TM-labeled samples were pooled and dried by speed vac. The combined samples were resuspended in 0.5% acetic acid in water and pH-corrected with acetic acid until pH was <2. 40 μg of protein was desalted with C18 stage tips prepared in-house and dried by speed vac.
# Samples were resuspended in 10 mM KH2PO4 (pH 2.6), 30% acetonitrile (v/v) in water, and fractionated by off-line strong cation exchange chromatography prior to mass spectrometry (MS) analysis similar to as reported previously ([66]). The full synaptosome proteome control was prepared similarly without TMTsixplex^TM labeling.
# All TMT samples were analyzed with three-stage mass spectrometry (MS3) TMTsixplex^TM quantification workflow as described previously ([34]).
# [1] = protein P27671 Ras-specific guanine nucleotide-releasing factor 1 (Rasgrf1)
# [2] = protein P35762 CD81 antigen (Cd81)
# [3] = protein P46096 Synaptotagmin-1 (Syt1)
# [4] = protein P50544 Very long-chain specific acyl-CoA dehydrogenase, mitochondrial (Acadvl)
# [5] = protein P50571 Gamma-aminobutyric acid receptor subunit beta-1 (Gabrb1)
# [6] = protein P56564 Excitatory amino acid transporter 1 (Slc1a3)
# [7] = protein P60879 Synaptosomal-associated protein 25 (Snap25)
# [8] = protein P61264 Syntaxin-1B (Stx1b)
# [9] = protein P62204 Calmodulin (Calm1)
# [10] = protein P63328 Serine/threonine-protein phosphatase 2B catalytic subunit alpha isoform (Ppp3ca)
# [11] = protein Q2TPA8 Hydroxysteroid dehydrogenase-like protein 2 (Hsdl2)
# [12] = protein Q3TXX4 Vesicular glutamate transporter 1 (Slc17a7)
# [13] = protein Q3UN02 Lysocardiolipin acyltransferase 1 (Lclat1)
# [14] = protein Q4W8U9 Scg2 protein (Scg2)
# [15] = protein Q5U458 DnaJ homolog subfamily C member 11 (Dnajc11)
# [16] = protein Q7TME0 Lipid phosphate phosphatase-related protein type 4 (Lppr4)
# [17] = protein Q7TQ95 Protein lunapark (Lnp)
# [18] = protein Q8BFT9 Synaptic vesicle 2-related protein (Svop)
# [19] = protein Q8BG39 Synaptic vesicle glycoprotein 2B (Sv2b)
# [20] = protein Q8BH59 Calcium-binding mitochondrial carrier protein Aralar1 (Slc25a12)
# [21] = protein Q8BH66 Atlastin-1 (Atl1)
# [22] = protein Q8BUN9 Protein Slc24a2 (Slc24a2)
# [23] = protein Q8BW75 Amine oxidase [flavin-containing] B (Maob)
# [24] = protein Q8CGK7 Guanine nucleotide-binding protein G(olf) subunit alpha (Gnal)
# [25] = protein Q8K0T0 Reticulon-1 (Rtn1)
# [26] = protein Q9CPQ3 Mitochondrial import receptor subunit TOM22 homolog (Tomm22)
# [27] = protein Q9CWK8 Sorting nexin-2 (Snx2)
# [28] = protein Q9D6J5 NADH dehydrogenase [ubiquinone] 1 beta subcomplex subunit 8, mitochondrial (Ndufb8)
# [29] = protein Q9D328 Transmembrane protein 35 (Tmem35)
# [30] = protein Q9ERS2 NADH dehydrogenase [ubiquinone] 1 alpha subcomplex subunit 13 (Ndufa13)
# [31] = protein Q9ESW4 Acylglycerol kinase, mitochondrial (Agk)
# [32] = protein Q9QXV0 ProSAAS (Pcsk1n)
# [33] = protein Q9QZM0 Ubiquilin-2 (Ubqln2)
# [34] = protein Q9R0K7 Plasma membrane calcium-transporting ATPase 2 (Atp2b2)
# [35] = protein Q9Z0V2 Potassium voltage-gated channel subfamily D member 2 (Kcnd2)
# [36] = protein Q67BT3 Solute carrier family 13 member 5 (Slc13a5)
# [37] = protein Q80X80 C2 domain-containing protein 2-like (C2cd2l)
# [38] = protein Q91YQ5 Dolichyl-diphosphooligosaccharide--protein glycosyltransferase subunit 1 (Rpn1)
# [39] = protein Q99PU5 Long-chain-fatty-acid--CoA ligase ACSBG1 (Acsbg1)
compound,measurement,setting,value
"CC(C)c1cccc(C(C)C)c1O [propofol, 2,6-diisopropylphenol, reference compound]",% propofol protection,[1],54%
same,Log2( Mean 'UV/ UV+propofol'),[1],1.10
same,% propofol protection,protein P35564 Calnexin (Canx),54%
same,Log2( Mean 'UV/ UV+propofol'),protein P35564 Calnexin (Canx),1.07
same,% propofol protection,[2],58%
same,Log2( Mean 'UV/ UV+propofol'),[2],1.14
same,% propofol protection,[3],50%
same,Log2( Mean 'UV/ UV+propofol'),[3],0.95
same,% propofol protection,[4],51%
same,Log2( Mean 'UV/ UV+propofol'),[4],0.99
same,% propofol protection,[5],58%
same,Log2( Mean 'UV/ UV+propofol'),[5],1.06
same,Log2( Mean 'UV/ UV+propofol'),"protein P56480 ATP synthase subunit beta, mitochondrial (Atp5b)",1.15
same,% propofol protection,[6],56%
same,Log2( Mean 'UV/ UV+propofol'),[6],1.10
same,% propofol protection,[7],57%
same,Log2( Mean 'UV/ UV+propofol'),[7],1.12
same,% propofol protection,[8],57%
same,Log2( Mean 'UV/ UV+propofol'),[8],1.14
same,% propofol protection,[9],53%
same,Log2( Mean 'UV/ UV+propofol'),[9],0.97
same,% propofol protection,[10],52%
same,Log2( Mean 'UV/ UV+propofol'),[10],0.93
same,% propofol protection,[11],53%
same,Log2( Mean 'UV/ UV+propofol'),[11],1.03
same,% propofol protection,[12],57%
same,Log2( Mean 'UV/ UV+propofol'),[12],1.15
same,% propofol protection,[13],52%
same,Log2( Mean 'UV/ UV+propofol'),[13],1.03
same,% propofol protection,[14],53%
same,Log2( Mean 'UV/ UV+propofol'),[14],0.99
same,Log2( Mean 'UV/ UV+propofol'),protein Q5IRJ6 Zinc transporter 9 (Slc30a9),1.17
same,% propofol protection,[15],53%
same,Log2( Mean 'UV/ UV+propofol'),[15],0.96
same,% propofol protection,[16],57%
same,Log2( Mean 'UV/ UV+propofol'),[16],1.08
same,% propofol protection,[17],58%
same,Log2( Mean 'UV/ UV+propofol'),[17],1.23
same,% propofol protection,[18],53%
same,Log2( Mean 'UV/ UV+propofol'),[18],0.94
same,% propofol protection,[19],50%
same,Log2( Mean 'UV/ UV+propofol'),[19],0.94
same,Log2( Mean 'UV/ UV+propofol'),protein Q8BG51 Mitochondrial Rho GTPase 1 (Rhot1),1.18
same,Log2( Mean 'UV/ UV+propofol'),protein Q8BH24 Transmembrane 9 superfamily member 4 (Tm9sf4),1.11
same,% propofol protection,[20],50%
same,Log2( Mean 'UV/ UV+propofol'),[20],0.98
same,% propofol protection,[21],57%
same,Log2( Mean 'UV/ UV+propofol'),[21],1.14
same,% propofol protection,[22],52%
same,Log2( Mean 'UV/ UV+propofol'),[22],1.03
same,% propofol protection,[23],56%
same,Log2( Mean 'UV/ UV+propofol'),[23],1.10
same,% propofol protection,[24],55%
same,Log2( Mean 'UV/ UV+propofol'),[24],1.05
same,% propofol protection,[25],57%
same,Log2( Mean 'UV/ UV+propofol'),[25],1.05
same,Log2( Mean 'UV/ UV+propofol'),"protein Q8VCX5 Calcium uptake protein 1, mitochondrial (Micu1)",1.09
same,% propofol protection,[26],57%
same,Log2( Mean 'UV/ UV+propofol'),[26],1.05
same,% propofol protection,[27],51%
same,Log2( Mean 'UV/ UV+propofol'),[27],1.00
same,% propofol protection,[28],57%
same,Log2( Mean 'UV/ UV+propofol'),[28],1.23
same,% propofol protection,[29],55%
same,Log2( Mean 'UV/ UV+propofol'),[29],1.10
same,% propofol protection,[30],53%
same,Log2( Mean 'UV/ UV+propofol'),[30],0.98
same,% propofol protection,[31],58%
same,Log2( Mean 'UV/ UV+propofol'),[31],1.18
same,Log2( Mean 'UV/ UV+propofol'),protein Q9JIG8 PRA1 family protein 2 (Praf2),1.23
same,% propofol protection,[32],57%
same,Log2( Mean 'UV/ UV+propofol'),[32],1.11
same,% propofol protection,[33],51%
same,Log2( Mean 'UV/ UV+propofol'),[33],0.96
same,% propofol protection,[34],51%
same,Log2( Mean 'UV/ UV+propofol'),[34],1.00
same,Log2( Mean 'UV/ UV+propofol'),"protein Q9WU79 Proline dehydrogenase 1, mitochondrial (Prodh)",1.11
same,% propofol protection,[35],52%
same,Log2( Mean 'UV/ UV+propofol'),[35],1.01
same,% propofol protection,[36],57%
same,Log2( Mean 'UV/ UV+propofol'),[36],1.13
same,% propofol protection,[37],53%
same,Log2( Mean 'UV/ UV+propofol'),[37],1.04
same,% propofol protection,[38],55%
same,Log2( Mean 'UV/ UV+propofol'),[38],1.11
same,% propofol protection,[39],58%
same,Log2( Mean 'UV/ UV+propofol'),[39],1.12
same,Log2( Mean 'UV/ UV+propofol'),protein Q925I1 ATPase family AAA domain-containing protein 3 (Atad3),1.17
